For two molecules, inhibition zone results are on record in US11926598B1, “1-(4-nitrobenzylideneamino)-5-phenylimidazolidine-2,4-dione as an antimicrobial compound” (KING FAISAL UNIVERSITY, priority 2023, dated 2024).

Format in all cases: cell-based
The subject of one assay is Bacillus Cereus. The experiment in a line: Agar plate disc-diffusion, antibacterial inhibition zone. The conditions noted are these: Bacillus Cereus (Gram positive). On the procedure:
(§1) The agar plate disc-diffusion method was applied. […] The discs were then placed onto the surface of agar plates (nutrient agar for bacteria and Sabouraud's dextrose agar for fungi) seeded with the test organism. Each plate contained 15 mL of the agar medium, previously seeded with 0.2 mL of the broth culture of each organism pregrown for 18 hours. The plates were incubated at 37° C. for 48 hours, and 72 hours for fungi. The inhibition zones was measured in millimeter. Discs impregnated with DMSO were used as a control, and its inhibition zone was subtracted from the tested compound actual inhibition zone.
(§2) The results of the antimicrobial testing can be observed in Tables 1 and 2, below, with ciprofloxacin serving as a reference.
In general terms: In agar diffusion tests the substance spreads into inoculated agar from a disc or well.

Another assay concerns Escherichia coli. The description is as above. The settings on record: Escherichia coli (Gram negative). On the procedure:
as §1, §2

Another assay relates to Pseudomonas aeruginosa. Described as above. The conditions noted are these: Pseudomonas aeruginosa (Gram negative). On the procedure: as §1, §2
A further assay deals with Staphylococcus aureus. The description is as above. The conditions noted are these: Staphylococcus aureus (Gram positive). The protocol: as §1, §2
The next assay has as its system Aspergillus flavus. Kind of assay: Agar plate disc-diffusion, antifungal inhibition zone. On the procedure: as §1, §2
The test system of assay [1] is Chrysosporium keratinophilum. The assay is described as above. On the procedure: as §1, §2
Where [2] appears, read: A = concentration of comp. = 10,000 μL.
Setting [3] is: B = concentration of comp. = 30.000 μL.
The mark [4] stands for this setting: C = concentration of comp. = 50,000 μL.

For the molecule `O=C1NC(=O)N(N=Cc2ccc([N+](=O)[O-])cc2)C1c1ccccc1` (stereo not drawn) [Compound 4, 1-(4-nitrobenzylideneamino)-5-phenylimidazolidine-2,4-dione], the inhibition zone in the assay with Bacillus Cereus (setting [2]) was 25 millimeter; with Bacillus Cereus (setting [3]), 27 millimeter; in the assay with Bacillus Cereus (setting [4]), 37 millimeter; in the assay on Escherichia coli (setting [2]) it was 30 millimeter; in the assay on Escherichia coli (setting [3]), 35 millimeter; in the assay with Escherichia coli (setting [4]), 51 millimeter. Moreover, the inhibition zone with Pseudomonas aeruginosa (setting [2]) is recorded as 25 millimeter; in the assay on Pseudomonas aeruginosa (setting [3]), 27 millimeter; in the assay on Pseudomonas aeruginosa (setting [4]) it was 40 millimeter; in the assay with Staphylococcus aureus (setting [2]), 19 millimeter; with Staphylococcus aureus (setting [3]), 24 millimeter; in the assay on Staphylococcus aureus (setting [4]), 30 millimeter. The inhibition zone with Aspergillus flavus (setting [2]) is 19 millimeter; in the assay on Aspergillus flavus (setting [3]) it was 24 millimeter; with Aspergillus flavus (setting [4]) it was 35 millimeter; in assay [1] (setting [2]), 26 millimeter; in assay [1] (setting [3]) it was 28 millimeter; in assay [1] (setting [4]), 50 millimeter.

As to `O=C(O)c1cn(C2CC2)c2cc(N3CCNCC3)c(F)cc2c1=O` [Cip., ciprofloxacin], the inhibition zone with Bacillus Cereus (setting [2]) was determined as 29 millimeter; in the assay with Bacillus Cereus (setting [3]), 30 millimeter; with Bacillus Cereus (setting [4]), 42 millimeter; in the assay on Escherichia coli (setting [2]), 30 millimeter; with Escherichia coli (setting [3]) it was 39 millimeter; with Escherichia coli (setting [4]), 60 millimeter. For the same molecule, the inhibition zone in the assay on Pseudomonas aeruginosa (setting [2]) is 29 millimeter; in the assay with Pseudomonas aeruginosa (setting [3]), 30 millimeter; in the assay on Pseudomonas aeruginosa (setting [4]) it was 53 millimeter; in the assay on Staphylococcus aureus (setting [2]) it was 43 millimeter; in the assay with Staphylococcus aureus (setting [3]) it was 44 millimeter; in the assay on Staphylococcus aureus (setting [4]), 53 millimeter. In addition, the inhibition zone in the assay on Aspergillus flavus (setting [2]) is 29 millimeter; with Aspergillus flavus (setting [3]), 30 millimeter; in the assay on Aspergillus flavus (setting [4]), 42 millimeter; in assay [1] (setting [2]) it was 29 millimeter; in assay [1] (setting [3]), 30 millimeter; in assay [1] (setting [4]), 53 millimeter.
